Assays:
[1] = target: Proto-oncogene tyrosine-protein kinase ROS (Homo sapiens) (UniProt P08922); assay: Inhibition of recombinant human N-terminal His6-tagged ROS (1883 to end residues) expressed in baculovirus infected Sf21 insect cells at 2 uM using KKKSPGEYVNIEFG as substrate relative to control
[2] = target: Receptor-interacting serine/threonine-protein kinase 2 (Homo sapiens) (UniProt O43353); assay: Inhibition of recombinant human N-terminal His6-tagged RIPK2 (1 to 299 residues) expressed in baculovirus infected Sf21 insect cells at 2 uM using MBP as substrate relative to control
[3] = target: Dual specificity mitogen-activated protein kinase kinase 7 (Homo sapiens) (UniProt O14733); assay: Inhibition of recombinant human N-terminal GST-tagged MKK7beta1 (2 to end residues) expressed in Escherichia coli at 2 uM using JNK1alpha1/SAPK1c as substrate relative to control

Measured: inhibition

Sequence of Dual specificity mitogen-activated protein kinase kinase 7 (Homo sapiens) (O14733 whole entry): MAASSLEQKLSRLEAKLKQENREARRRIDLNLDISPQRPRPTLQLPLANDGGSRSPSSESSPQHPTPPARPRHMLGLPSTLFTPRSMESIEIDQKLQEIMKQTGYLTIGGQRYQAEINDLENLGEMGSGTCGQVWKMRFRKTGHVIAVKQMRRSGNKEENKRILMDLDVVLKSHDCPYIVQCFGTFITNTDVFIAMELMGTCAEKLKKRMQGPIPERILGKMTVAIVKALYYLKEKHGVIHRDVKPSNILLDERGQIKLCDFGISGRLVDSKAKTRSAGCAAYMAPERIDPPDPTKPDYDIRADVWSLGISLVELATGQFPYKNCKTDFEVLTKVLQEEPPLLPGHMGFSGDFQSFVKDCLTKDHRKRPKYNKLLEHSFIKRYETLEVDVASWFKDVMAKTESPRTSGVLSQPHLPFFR
Sequence of Receptor-interacting serine/threonine-protein kinase 2 (Homo sapiens) (O43353 whole entry, the tested form may be a part): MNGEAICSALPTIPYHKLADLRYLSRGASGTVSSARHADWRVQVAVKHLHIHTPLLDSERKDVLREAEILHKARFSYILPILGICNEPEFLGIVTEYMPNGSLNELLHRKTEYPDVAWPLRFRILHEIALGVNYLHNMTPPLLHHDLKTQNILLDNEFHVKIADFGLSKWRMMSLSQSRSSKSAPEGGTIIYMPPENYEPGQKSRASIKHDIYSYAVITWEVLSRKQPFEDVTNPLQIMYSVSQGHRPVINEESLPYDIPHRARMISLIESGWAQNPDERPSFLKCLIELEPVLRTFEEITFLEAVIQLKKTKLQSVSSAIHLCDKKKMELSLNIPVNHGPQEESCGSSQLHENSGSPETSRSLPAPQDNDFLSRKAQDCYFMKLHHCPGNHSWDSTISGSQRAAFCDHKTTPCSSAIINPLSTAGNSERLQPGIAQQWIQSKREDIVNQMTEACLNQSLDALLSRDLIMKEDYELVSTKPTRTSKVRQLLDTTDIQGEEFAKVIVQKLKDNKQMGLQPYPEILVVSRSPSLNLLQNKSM
Sequence of Proto-oncogene tyrosine-protein kinase ROS (Homo sapiens) (P08922 whole entry, the tested form may be a part): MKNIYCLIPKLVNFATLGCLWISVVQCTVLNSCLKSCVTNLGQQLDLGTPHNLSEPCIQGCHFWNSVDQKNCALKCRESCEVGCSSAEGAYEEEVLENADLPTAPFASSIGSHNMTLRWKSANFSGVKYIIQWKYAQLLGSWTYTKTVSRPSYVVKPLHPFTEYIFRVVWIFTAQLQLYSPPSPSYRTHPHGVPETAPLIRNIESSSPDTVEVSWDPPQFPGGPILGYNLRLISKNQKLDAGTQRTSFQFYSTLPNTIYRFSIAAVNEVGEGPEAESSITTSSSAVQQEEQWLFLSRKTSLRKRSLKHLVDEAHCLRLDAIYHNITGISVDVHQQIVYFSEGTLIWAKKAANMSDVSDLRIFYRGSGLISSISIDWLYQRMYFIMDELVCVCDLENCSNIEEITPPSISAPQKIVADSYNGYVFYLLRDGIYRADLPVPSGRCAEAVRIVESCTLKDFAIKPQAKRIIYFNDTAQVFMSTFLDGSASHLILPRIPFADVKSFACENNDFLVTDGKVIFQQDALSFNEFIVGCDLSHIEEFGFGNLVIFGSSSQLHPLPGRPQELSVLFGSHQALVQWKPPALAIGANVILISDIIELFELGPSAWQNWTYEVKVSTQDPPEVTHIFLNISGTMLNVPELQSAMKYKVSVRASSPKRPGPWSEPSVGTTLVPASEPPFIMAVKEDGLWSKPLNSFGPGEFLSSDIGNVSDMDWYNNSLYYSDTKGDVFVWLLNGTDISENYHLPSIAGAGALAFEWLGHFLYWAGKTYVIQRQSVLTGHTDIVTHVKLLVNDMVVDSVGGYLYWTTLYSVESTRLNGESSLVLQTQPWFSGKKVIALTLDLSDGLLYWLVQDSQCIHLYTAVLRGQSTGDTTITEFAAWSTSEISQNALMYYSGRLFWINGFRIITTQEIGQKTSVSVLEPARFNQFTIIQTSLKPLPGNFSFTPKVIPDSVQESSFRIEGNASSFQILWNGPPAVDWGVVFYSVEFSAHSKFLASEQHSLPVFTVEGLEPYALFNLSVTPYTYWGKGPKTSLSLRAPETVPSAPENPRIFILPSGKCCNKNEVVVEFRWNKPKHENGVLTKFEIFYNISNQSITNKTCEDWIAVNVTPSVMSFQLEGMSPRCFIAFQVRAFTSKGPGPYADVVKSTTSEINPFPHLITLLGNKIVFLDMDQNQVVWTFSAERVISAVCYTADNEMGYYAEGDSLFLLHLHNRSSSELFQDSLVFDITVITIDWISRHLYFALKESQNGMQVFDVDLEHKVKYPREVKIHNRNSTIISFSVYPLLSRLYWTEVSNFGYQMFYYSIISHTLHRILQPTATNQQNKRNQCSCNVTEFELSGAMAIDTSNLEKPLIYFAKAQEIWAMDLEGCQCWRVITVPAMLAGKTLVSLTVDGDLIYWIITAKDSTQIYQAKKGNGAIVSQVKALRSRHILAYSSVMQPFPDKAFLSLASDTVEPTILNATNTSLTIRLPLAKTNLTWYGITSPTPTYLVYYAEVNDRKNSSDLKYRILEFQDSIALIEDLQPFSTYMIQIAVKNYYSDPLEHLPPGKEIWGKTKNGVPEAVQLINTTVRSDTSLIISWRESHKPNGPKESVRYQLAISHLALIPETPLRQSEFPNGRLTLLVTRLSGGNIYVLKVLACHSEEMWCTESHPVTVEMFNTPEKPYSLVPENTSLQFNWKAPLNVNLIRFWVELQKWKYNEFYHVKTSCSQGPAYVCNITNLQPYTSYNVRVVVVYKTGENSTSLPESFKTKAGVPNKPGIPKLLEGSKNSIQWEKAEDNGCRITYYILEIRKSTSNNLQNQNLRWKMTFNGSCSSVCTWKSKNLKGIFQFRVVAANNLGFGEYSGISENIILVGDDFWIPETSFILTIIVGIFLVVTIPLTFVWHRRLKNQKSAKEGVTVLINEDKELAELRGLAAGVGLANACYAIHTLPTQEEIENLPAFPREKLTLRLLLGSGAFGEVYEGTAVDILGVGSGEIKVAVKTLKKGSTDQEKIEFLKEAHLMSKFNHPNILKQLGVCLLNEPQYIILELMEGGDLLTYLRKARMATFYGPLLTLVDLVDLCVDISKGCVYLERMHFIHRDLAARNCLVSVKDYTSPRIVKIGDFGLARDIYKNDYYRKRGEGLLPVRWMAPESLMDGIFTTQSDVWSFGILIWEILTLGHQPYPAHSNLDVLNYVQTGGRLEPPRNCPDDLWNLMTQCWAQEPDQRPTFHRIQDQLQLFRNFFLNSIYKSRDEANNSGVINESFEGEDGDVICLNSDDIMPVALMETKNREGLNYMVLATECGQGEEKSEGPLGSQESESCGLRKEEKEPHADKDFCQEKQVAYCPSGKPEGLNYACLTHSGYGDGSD

C[C@@H](c1ccc2ncccc2c1)c1nnc2sc(-c3cnn(C)c3)nn12
< 50%: all assays above

From ChEMBL document CHEMBL4706768, “Discovery of Potent, Selective Triazolothiadiazole-Containing c-Met Inhibitors” (ACS Med Chem Lett, 2021)
